Measurements from ChEMBL document CHEMBL1201862, “PubChem BioAssay data set” (2004).
Activity calls are given as the source filed them.

Tests used:
Format in all cases: functional
[1] = molecular target: Megakaryocyte-associated tyrosine-protein kinase (Homo sapiens, UniProt P42679);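 further: affinity measured as one member of a kinase panel (Navigating the Kinome) against MATK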
[2] = molecular target: Dual specificity protein kinase CLK2 (Homo sapiens, UniProt P49760)
[3] = molecular target: Protein kinase C zeta type (Homo sapiens, UniProt Q05513);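 further: measured as one member of a broad kinase profiling panel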
[4] = molecular target: Serine/threonine-protein kinase PLK3 (Homo sapiens, UniProt Q9H4B4)
[5] = molecular target: Serine/threonine-protein kinase TBK1 (Homo sapiens, UniProt Q9UHD2); test: Navigating the Kinome. Panel member name: TBK1
[6] = molecular target: Ribosomal protein S6 kinase beta-1 (Homo sapiens, UniProt P23443);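 further: measured as one member of a kinome-wide profiling panel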
[7] = molecular target: Testis-specific serine/threonine-protein kinase 2 (Homo sapiens, UniProt Q96PF2);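 further: part of the Navigating the Kinome panel, target entry STK22B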
Activin receptor type-1 = Activin receptor type-1 (Homo sapiens, UniProt Q04771); test: Navigating the Kinome. Panel member name: ACVR1
[8] = molecular target: Serine/threonine-protein kinase pim-1 (Homo sapiens, UniProt P11309)
[9] = molecular target: Calcium/calmodulin-dependent protein kinase type II subunit delta (Homo sapiens, UniProt Q13557)
[10] = molecular target: Serine/threonine-protein kinase pim-3 (Homo sapiens, UniProt Q86V86);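 further: value obtained as one member of a broad kinase panel profiling effort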
[11] = molecular target: MAP kinase-interacting serine/threonine-protein kinase 2 (Homo sapiens, UniProt Q9HBH9)
Chain of MAP kinase-interacting serine/threonine-protein kinase 2 (Q9HBH9 whole entry): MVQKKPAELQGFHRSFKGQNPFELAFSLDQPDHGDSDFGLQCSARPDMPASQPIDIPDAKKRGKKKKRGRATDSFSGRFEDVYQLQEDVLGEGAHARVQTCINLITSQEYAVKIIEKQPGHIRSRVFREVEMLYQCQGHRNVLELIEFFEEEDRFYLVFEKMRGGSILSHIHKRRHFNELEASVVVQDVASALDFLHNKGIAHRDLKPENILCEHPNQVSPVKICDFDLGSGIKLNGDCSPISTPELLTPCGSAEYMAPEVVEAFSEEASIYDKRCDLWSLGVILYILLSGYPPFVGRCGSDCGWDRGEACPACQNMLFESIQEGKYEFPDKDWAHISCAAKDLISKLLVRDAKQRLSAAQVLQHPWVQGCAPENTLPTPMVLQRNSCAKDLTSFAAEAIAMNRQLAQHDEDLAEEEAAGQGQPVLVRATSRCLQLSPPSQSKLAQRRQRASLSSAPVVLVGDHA

[12] = molecular target: G protein-coupled receptor kinase 5 (Homo sapiens, UniProt P34947); test: Navigating the Kinome. Panel member name: GPRK5
[13] = molecular target: Protein kinase C iota type (Homo sapiens, UniProt P41743);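 further: measured within a kinome-wide kinase panel, PRKCI as panel member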
[14] = molecular target: Dual specificity tyrosine-phosphorylation-regulated kinase 1B (Homo sapiens, UniProt Q9Y463); test: Navigating the Kinome. Panel member name: DYRK1B
Chain of Dual specificity tyrosine-phosphorylation-regulated kinase 1B (Q9Y463 whole entry): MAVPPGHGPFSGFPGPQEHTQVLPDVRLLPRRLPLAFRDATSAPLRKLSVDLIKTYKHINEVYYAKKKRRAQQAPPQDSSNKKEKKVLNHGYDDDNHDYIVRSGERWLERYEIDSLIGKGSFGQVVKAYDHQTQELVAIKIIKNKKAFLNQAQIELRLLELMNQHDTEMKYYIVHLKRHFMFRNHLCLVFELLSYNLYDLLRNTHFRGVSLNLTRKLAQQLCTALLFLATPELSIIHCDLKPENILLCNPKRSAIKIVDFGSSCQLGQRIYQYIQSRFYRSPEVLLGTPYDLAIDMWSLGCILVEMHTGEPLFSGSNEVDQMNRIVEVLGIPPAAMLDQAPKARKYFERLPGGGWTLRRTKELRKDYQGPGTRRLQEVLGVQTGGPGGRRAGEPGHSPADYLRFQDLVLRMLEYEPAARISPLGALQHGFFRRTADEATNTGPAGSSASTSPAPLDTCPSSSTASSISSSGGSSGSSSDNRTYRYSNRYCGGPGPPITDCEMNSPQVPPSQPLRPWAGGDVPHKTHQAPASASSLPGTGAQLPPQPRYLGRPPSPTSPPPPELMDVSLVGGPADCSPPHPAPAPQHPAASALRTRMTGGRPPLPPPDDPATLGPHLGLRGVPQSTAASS

[15] = molecular target: Protein-tyrosine kinase 6 (Homo sapiens, UniProt Q13882)
[16] = molecular target: Platelet-derived growth factor receptor alpha (Homo sapiens, UniProt P16234); test: Navigating the Kinome. Panel member name: PDGFRA
[17] = molecular target: RAC-alpha serine/threonine-protein kinase (Homo sapiens, UniProt P31749);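 further: AKT1 affinity measured as one member of a kinome-wide kinase profiling panel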
[18] = molecular target: Mitogen-activated protein kinase kinase kinase kinase 5 (Homo sapiens, UniProt Q9Y4K4);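 further: measured as one member of a kinome-spanning kinase panel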
Chain of Mitogen-activated protein kinase kinase kinase kinase 5 (Q9Y4K4 whole entry): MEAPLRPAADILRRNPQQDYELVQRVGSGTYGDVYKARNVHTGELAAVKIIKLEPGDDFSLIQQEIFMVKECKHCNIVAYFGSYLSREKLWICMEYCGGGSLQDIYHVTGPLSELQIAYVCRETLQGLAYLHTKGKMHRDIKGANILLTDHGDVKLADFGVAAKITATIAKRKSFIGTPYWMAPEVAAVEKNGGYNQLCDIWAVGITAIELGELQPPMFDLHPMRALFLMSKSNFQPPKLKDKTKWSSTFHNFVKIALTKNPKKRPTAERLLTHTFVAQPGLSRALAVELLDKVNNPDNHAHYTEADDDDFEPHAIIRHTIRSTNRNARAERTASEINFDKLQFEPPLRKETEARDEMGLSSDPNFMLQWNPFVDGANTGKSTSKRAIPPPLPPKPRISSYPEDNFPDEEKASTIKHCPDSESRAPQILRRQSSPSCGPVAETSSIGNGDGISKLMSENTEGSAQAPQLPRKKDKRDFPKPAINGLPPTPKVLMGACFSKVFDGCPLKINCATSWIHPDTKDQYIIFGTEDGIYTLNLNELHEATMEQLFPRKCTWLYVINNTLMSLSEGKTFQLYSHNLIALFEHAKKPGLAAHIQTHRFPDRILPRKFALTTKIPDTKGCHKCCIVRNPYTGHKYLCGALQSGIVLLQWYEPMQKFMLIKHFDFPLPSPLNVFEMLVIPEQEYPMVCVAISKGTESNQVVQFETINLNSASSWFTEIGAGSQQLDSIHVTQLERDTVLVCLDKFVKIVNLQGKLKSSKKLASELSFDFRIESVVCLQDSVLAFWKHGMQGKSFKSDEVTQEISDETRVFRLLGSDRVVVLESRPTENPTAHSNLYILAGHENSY

[19] = molecular target: Serine/threonine-protein kinase DCLK1 (Homo sapiens, UniProt O15075);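 further: affinity for DCLK1 (listed as DCAMKL1) measured as one member of a kinome-wide kinase profiling panel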
Chain of Serine/threonine-protein kinase DCLK1 (O15075 whole entry): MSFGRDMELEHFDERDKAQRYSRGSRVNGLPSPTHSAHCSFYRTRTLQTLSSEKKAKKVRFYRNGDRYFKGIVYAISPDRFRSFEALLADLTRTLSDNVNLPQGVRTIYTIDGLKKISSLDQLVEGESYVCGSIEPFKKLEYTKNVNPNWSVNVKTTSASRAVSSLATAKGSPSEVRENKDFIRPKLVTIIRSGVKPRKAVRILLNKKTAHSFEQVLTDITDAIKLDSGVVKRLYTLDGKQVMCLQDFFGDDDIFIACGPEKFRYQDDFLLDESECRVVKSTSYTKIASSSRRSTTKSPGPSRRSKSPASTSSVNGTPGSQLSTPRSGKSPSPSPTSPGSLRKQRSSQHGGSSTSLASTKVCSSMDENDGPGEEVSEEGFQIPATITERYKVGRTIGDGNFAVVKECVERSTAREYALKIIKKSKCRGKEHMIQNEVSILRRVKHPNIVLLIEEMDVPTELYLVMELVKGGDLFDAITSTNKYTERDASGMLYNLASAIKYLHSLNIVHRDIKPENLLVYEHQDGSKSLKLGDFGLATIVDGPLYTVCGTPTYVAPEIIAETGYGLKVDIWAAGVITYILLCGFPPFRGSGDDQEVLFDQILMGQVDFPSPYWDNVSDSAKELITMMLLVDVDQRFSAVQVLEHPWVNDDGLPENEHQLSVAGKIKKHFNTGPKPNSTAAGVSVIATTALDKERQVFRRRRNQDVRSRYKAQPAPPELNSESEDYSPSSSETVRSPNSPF

[20] = molecular target: Cyclin-dependent kinase 8 (Homo sapiens, UniProt P49336); test: Navigating the Kinome. Panel member name: CDK8
Chain of Cyclin-dependent kinase 8 (P49336 whole entry): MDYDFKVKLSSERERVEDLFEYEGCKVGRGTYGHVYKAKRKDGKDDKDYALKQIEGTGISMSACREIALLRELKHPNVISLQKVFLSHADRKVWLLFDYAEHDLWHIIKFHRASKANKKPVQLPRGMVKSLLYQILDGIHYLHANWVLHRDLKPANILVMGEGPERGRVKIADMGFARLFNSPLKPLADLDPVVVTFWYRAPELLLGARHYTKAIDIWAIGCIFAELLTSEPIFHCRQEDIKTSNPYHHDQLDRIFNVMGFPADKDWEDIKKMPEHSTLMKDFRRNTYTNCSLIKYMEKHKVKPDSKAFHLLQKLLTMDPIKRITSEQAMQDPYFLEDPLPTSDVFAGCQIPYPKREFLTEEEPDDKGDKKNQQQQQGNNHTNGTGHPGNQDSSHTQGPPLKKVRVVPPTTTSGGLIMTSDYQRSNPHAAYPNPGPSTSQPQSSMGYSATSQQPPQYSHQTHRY

[21] = molecular target: Cyclin-dependent kinase 7 (Homo sapiens, UniProt P50613);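 further: value comes from a kinome-wide kinase profiling panel in which CDK7 is one member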
[22] = molecular target: Cyclin-dependent kinase 9 (Homo sapiens, UniProt P50750);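 further: value from the CDK9 entry of a kinome-spanning kinase panel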
[23] = molecular target: Dual specificity protein kinase CLK4 (Homo sapiens, UniProt Q9HAZ1)
Chain of Dual specificity protein kinase CLK4 (Q9HAZ1 whole entry): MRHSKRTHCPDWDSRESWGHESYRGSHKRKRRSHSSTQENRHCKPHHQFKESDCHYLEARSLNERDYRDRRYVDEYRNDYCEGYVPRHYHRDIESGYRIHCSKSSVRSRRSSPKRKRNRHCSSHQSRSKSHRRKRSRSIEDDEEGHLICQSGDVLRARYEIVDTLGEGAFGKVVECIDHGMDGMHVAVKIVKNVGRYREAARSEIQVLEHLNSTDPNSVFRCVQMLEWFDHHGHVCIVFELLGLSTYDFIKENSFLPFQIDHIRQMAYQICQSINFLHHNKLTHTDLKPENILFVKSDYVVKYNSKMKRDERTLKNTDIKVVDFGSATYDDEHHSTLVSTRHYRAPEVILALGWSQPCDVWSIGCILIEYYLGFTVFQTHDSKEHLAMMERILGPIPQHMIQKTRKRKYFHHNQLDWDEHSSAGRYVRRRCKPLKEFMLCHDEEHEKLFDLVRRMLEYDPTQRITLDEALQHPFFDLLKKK

[24] = molecular target: Mitogen-activated protein kinase kinase kinase kinase 4 (Homo sapiens, UniProt O95819)
[25] = molecular target: Macrophage-stimulating protein receptor (Homo sapiens, UniProt Q04912); test: Navigating the Kinome. Panel member name: MST1R
[26] = molecular target: Inhibitor of nuclear factor kappa-B kinase subunit epsilon (Homo sapiens, UniProt Q14164); test: Navigating the Kinome. Panel member name: IKBKE
[27] = molecular target: Leukocyte tyrosine kinase receptor (Homo sapiens, UniProt P29376); test: Navigating the Kinome. Panel member name: LTK
[28] = molecular target: Serine/threonine-protein kinase 3 (Homo sapiens, UniProt Q13188);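 further: measured as one member of a kinome-wide kinase panel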
Chain of Serine/threonine-protein kinase 3 (Q13188 whole entry): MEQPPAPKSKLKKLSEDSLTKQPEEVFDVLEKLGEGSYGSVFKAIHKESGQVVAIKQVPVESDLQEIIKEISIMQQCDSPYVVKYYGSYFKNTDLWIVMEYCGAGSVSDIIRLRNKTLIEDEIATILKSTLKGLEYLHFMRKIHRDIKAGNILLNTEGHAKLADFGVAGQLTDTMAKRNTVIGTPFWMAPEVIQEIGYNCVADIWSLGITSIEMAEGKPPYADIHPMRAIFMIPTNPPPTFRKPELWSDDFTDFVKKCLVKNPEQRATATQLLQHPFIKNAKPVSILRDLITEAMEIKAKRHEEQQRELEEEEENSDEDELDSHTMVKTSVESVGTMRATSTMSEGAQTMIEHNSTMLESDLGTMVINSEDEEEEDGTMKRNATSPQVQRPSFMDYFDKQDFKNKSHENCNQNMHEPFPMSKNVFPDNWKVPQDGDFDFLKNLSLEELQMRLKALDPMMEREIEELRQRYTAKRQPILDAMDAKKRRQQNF

[29] = molecular target: Eukaryotic elongation factor 2 kinase (Homo sapiens, UniProt O00418)
[30] = molecular target: Tyrosine-protein kinase Lck (Homo sapiens, UniProt P06239);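 further: lck was assayed as one member of a kinase panel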
[31] = molecular target: Rho-associated protein kinase 2 (Homo sapiens, UniProt O75116)
[32] = molecular target: Ribosomal protein S6 kinase alpha-5 (Homo sapiens, UniProt O75582)
LIM domain kinase 1 = LIM domain kinase 1 (Homo sapiens, UniProt P53667); test: Navigating the Kinome. Panel member name: LIMK1
Insulin receptor = Insulin receptor (Homo sapiens, UniProt P06213);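 further: insulin receptor kinase tested as one member of a kinome-wide kinase panel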
[33] = molecular target: Protein-tyrosine kinase 2-beta (Homo sapiens, UniProt Q14289)
[34] = molecular target: Inhibitor of nuclear factor kappa-B kinase subunit alpha (Homo sapiens, UniProt O15111)
[35] = molecular target: Calcium/calmodulin-dependent protein kinase type II subunit beta (Homo sapiens, UniProt Q13554)
Focal adhesion kinase 1 = Focal adhesion kinase 1 (Homo sapiens, UniProt Q05397);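 further: measured as one member of a kinome panel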
[36] = molecular target: Vascular endothelial growth factor receptor 3 (Homo sapiens, UniProt P35916);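 further: value from a kinome-wide profiling panel, with FLT4 as the panel member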
[37] = molecular target: Cyclin-dependent kinase 1 (Homo sapiens, UniProt P06493);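 further: Kinome-wide panel profiling, with the target listed as panel member CDC2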
[38] = molecular target: Tyrosine-protein kinase receptor UFO (Homo sapiens, UniProt P30530)
[39] = molecular target: Calcium/calmodulin-dependent protein kinase kinase 2 (Homo sapiens, UniProt Q96RR4); test: Navigating the Kinome. Panel member name: CAMKK2
[40] = IC50 of insulin release inhibition, rat insulinoma INS-1E line, 5 mM glucose, cell-based (AID 1117331)

Chain of Megakaryocyte-associated tyrosine-protein kinase (P42679 whole entry): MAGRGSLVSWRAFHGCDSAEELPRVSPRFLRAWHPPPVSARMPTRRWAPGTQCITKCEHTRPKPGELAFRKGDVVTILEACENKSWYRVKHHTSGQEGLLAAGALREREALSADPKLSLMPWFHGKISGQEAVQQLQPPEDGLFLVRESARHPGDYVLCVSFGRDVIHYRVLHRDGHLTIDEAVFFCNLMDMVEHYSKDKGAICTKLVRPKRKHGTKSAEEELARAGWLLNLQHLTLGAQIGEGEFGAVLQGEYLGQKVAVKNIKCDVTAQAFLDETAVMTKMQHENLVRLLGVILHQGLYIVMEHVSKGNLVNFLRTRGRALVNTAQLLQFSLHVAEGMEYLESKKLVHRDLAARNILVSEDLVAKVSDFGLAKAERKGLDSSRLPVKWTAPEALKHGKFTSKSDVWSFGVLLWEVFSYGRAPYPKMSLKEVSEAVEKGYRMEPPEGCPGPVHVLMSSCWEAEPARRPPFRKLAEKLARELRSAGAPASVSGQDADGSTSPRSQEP

NC(=O)c1cc(-c2ccnc(N)n2)[nH]c1-c1ccc(Cl)cc1Cl
5.8: pKi [8] | pKi [24]
5.7: pKi (Activin receptor type-1)
6.1: pKi [3] | pKi [13]
active: Ki [3] 794 nM | Ki (Activin receptor type-1) 2000 nM | Ki [8] 1580 nM | Ki [10] 398 nM | Ki [11] 79.4 nM | Ki [12] 2510 nM | Ki [13] 794 nM | Ki [14] 0.631 nM | Ki [17] 7940 nM | Ki [20] 15.8 nM | Ki [21] 158 nM | Ki [22] 3.98 nM | Ki [23] 0.631 nM | Ki [24] 1580 nM
5.1: pKi [17]
7.1: pKi [11]
8.4: pKi [22]
5.6: pKi [12]
9.2: pKi [14] | pKi [23]
inactive: Ki [1] > 2000 nM | Ki [2] > 2.51 nM | Ki [4] > 7940 nM | Ki [5] > 3160 nM | Ki [6] > 6310 nM | Ki [7] > 1580 nM | Ki [9] > 3160 nM | Ki [15] > 2510 nM | Ki [16] > 2510 nM | Ki [18] > 2510 nM | Ki [19] > 10000 nM | Ki [25] > 3980 nM | Ki [26] > 3160 nM | Ki [27] > 2510 nM | Ki [28] > 3160 nM
6.8: pKi [21]
7.8: pKi [20]
6.4: pKi [10]

NC(COc1cncc(-c2ccc3c(c2)C(=Cc2ccco2)C(=O)N3)c1)Cc1c[nH]c2ccccc12 (configuration not stated)
inactive: Ki [1] > 2000 nM | Ki (Insulin receptor) > 5010 nM | Ki [33] > 1580 nM | Ki (Focal adhesion kinase 1) > 1580 nM | Ki [15] > 2510 nM
active: Ki [4] 501 nM | Ki [29] 1260 nM | Ki [7] 794 nM | Ki [30] 398 nM | Ki [31] 12.6 nM | Ki [9] 15.8 nM | Ki [32] 25.1 nM | Ki (LIM domain kinase 1) 794 nM | Ki [34] 398 nM | Ki [11] 316 nM | Ki [35] 251 nM | Ki [18] 63.1 nM | Ki [36] 25.1 nM | Ki [37] 251 nM | Ki [19] 1000 nM | Ki [38] 10 nM | Ki [28] 12.6 nM

Cc1ccc(-n2nc(C(C)(C)C)cc2NC(=O)Nc2ccc(OCCN3CCOCC3)c3ccccc23)cc1 [DORAMAPIMOD]
inactive: Ki [39] > 2510 nM | IC50 [40] > 33300 nM
